Source: ChEMBL document CHEMBL5500325, “Identification of ethyl-6-bromo-2((phenylthio)methyl)imidazo[1,2-a]pyridine-3-carboxylate as a narrow spectrum inhibitor of Streptococcus pneumoniae and its FtsZ” (Eur J Med Chem, 2024)
Values after ≈ are worked out from the molar mass of the structure shown. Active and inactive are the calls of the source. No cut-off for these calls is given here.

What was measured:
[1] = system: Streptococcus pneumoniae; test: Antibacterial activity against Streptococcus pneumoniae TIGR4 assessed as inhibition of bacterial growth at 10 uM incubated for 24 hrs by agar plate assay; format: functional
[2] = system: Bacillus subtilis; test: Antibacterial activity against Bacillus subtilis 168 assessed as inhibition of bacterial growth at 10 uM incubated for 6 hrs by agar plate assay; format: functional, organism-based
[3] = system: Klebsiella pneumoniae; test: Antibacterial activity against Klebsiella pneumoniae assessed as inhibition of bacterial growth at 10 to 20 uM incubated for 4 hrs; format: functional, organism-based; settings: dose 10-20 µM
[4] = biological target: T1, Cell division protein FtsZ (Streptococcus pneumoniae serotype 2 (strain D39 / NCTC 7466)) (UniProt A0A0H2ZNE0); test: Inhibition of Streptococcus pneumoniae FtsZ polymerization assessed as length of polymers at 40 uM preincubated for 20 mins followed by GTP addition for 200 secs and later incubated on copper-TEM grid for 5 mins by transmission electron microscopy (reference value: 61 +/-26 nm); settings: time 1700.0 sec
T1 sequence (whole entry): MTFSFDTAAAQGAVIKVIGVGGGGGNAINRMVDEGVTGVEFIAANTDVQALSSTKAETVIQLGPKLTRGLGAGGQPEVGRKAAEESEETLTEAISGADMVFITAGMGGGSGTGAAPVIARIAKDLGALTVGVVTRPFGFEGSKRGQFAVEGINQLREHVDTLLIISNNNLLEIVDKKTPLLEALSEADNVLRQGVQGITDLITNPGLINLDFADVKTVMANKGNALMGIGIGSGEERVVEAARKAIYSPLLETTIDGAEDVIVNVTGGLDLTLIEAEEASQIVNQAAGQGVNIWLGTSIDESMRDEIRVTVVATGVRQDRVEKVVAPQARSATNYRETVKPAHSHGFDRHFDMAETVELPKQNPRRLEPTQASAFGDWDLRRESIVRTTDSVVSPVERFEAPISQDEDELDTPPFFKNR

[5] = system: Streptococcus pneumoniae; test: Antibacterial activity against Streptococcus pneumoniae TIGR4 assessed as inhibition of bacterial proliferation incubated for 24 hrs by CLSI based analysis; format: functional, organism-based
[6] = biological target: T1, Cell division protein FtsZ (Streptococcus pneumoniae serotype 2 (strain D39 / NCTC 7466)); test: Inhibition of Streptococcus pneumoniae FtsZ assessed as increase in GTPase activity by measuring increase in inorganic phosphate release upto 20 uM pretreated for 20 mins followed by GTP addition and measured after 10 mins by malachite green assay based UV-Vis spectrophometry; settings: time 30.0 min
[7] = system: Vibrio cholerae; test: Antibacterial activity against Vibrio cholerae assessed as inhibition of bacterial growth at 10 to 20 uM incubated for 4 hrs; format: functional, organism-based; settings: dose 10-20 µM
[8] = biological target: T1, Cell division protein FtsZ (Streptococcus pneumoniae serotype 2 (strain D39 / NCTC 7466)); test: Inhibition of Streptococcus pneumoniae FtsZ assessed as inhibition of extent of polymerization at 40 uM pretreated for 20 mins followed by GTP addition and measured for 20 mins by light scattering based analysis; settings: time 40.0 min
[9] = biological target: T1, Cell division protein FtsZ (Streptococcus pneumoniae serotype 2 (strain D39 / NCTC 7466)); test: Inhibition of Streptococcus pneumoniae FtsZ polymerization at 5 to 40 uM pretreated for 20 mins followed by GTP addition and measured for 20 mins by tryptophan fluorescence based spectrofluorometric analysis; settings: dose 5-40 µM, time 40.0 min
[10] = biological target: T1, Cell division protein FtsZ (Streptococcus pneumoniae serotype 2 (strain D39 / NCTC 7466)); test: Inhibition of FtsZ in Streptococcus pneumoniae assessed as propotion of cells with intact Z-ring at 40 uM incubated for 30 mins by DAPI staining based immunostaining analysis (reference value: 92%); design: scale not given: the % may be the effect or the level left
[11] = biological target: T1, Cell division protein FtsZ (Streptococcus pneumoniae serotype 2 (strain D39 / NCTC 7466)); test: Inhibition of Streptococcus pneumoniae FtsZ polymerization assessed as very short and thin polymers at 40 uM preincubated for 20 mins followed by GTP addition for 200 secs and later incubated on copper-TEM grid for 5 mins by transmission electron microscopy; settings: time 1700.0 sec
[12] = system: Streptococcus pneumoniae; test: Induction of DNA nucleoid segregation in Streptococcus pneumoniae at 40 uM incubated for 30 mins by DAPI staining based immunostaining analysis; format: functional, organism-based
[13] = system: Bacillus subtilis; test: Antibacterial activity against Bacillus subtilis 168 assessed as inhibition of bacterial growth at 10 to 20 uM incubated for 4 hrs; format: functional, organism-based; settings: dose 10-20 µM
[14] = system: Streptococcus pneumoniae; test: Bactericidal activity against Streptococcus pneumoniae TIGR4 assessed as induction of cell death by measuring proportion of PI-stained bacteria at 20 ug/ml incubated for 12 hrs by propidium iodide staining based confocal microscopy (reference value: 2%); format: functional; settings: dose 20 µg/ml
[15] = biological target: T1, Cell division protein FtsZ (Streptococcus pneumoniae serotype 2 (strain D39 / NCTC 7466)); test: Inhibition of Streptococcus pneumoniae FtsZ assessed as rate of polymerization at 40 uM pretreated for 20 mins followed by GTP addition and measured for 20 mins by tryptophan fluorescence based spectrofluorometric analysis (reference value: 0.19 +/-0.02 au/s); settings: time 40.0 min
[16] = system: Staphylococcus aureus; test: Antibacterial activity against Staphylococcus aureus assessed as inhibition of bacterial growth at 10 to 20 uM incubated for 4 hrs; format: functional, organism-based; settings: dose 10-20 µM
[17] = biological target: T1, Cell division protein FtsZ (Streptococcus pneumoniae serotype 2 (strain D39 / NCTC 7466)); test: Inhibition of Streptococcus pneumoniae FtsZ assessed as inhibition of rate of polymerization at 40 uM pretreated for 20 mins followed by GTP addition and measured for 20 mins by tryptophan fluorescence based spectrofluorometric analysis; settings: time 40.0 min
[18] = Antiproliferative activity against human HeLa cells assessed as inhibition of cell growth incubated for 24 hrs by SRB assay; format: toxicity, cell-based
[19] = system: Streptococcus pneumoniae; test: Induction of membrane disruption in Streptococcus pneumoniae TIGR4 at 40 uM incubated for 30 mins by FM4-64 live cell staining based confocal microscopy; format: functional, organism-based
[20] = biological target: T1, Cell division protein FtsZ (Streptococcus pneumoniae serotype 2 (strain D39 / NCTC 7466)); test: Inhibition of FtsZ in Streptococcus pneumoniae assessed as improper distribution of FtsZ throughout the cells at 40 uM incubated for 30 mins by DAPI staining based immunostaining analysis
[21] = system: Streptococcus pneumoniae; test: Bactericidal activity against Streptococcus pneumoniae TIGR4 assessed as induction of cell death by measuring proportion of PI-stained bacteria at 40 ug/ml incubated for 12 hrs by propidium iodide staining based confocal microscopy (reference value: 2%); format: functional; settings: dose 40 µg/ml
[22] = system: Streptococcus pyogenes; test: Antibacterial activity against Streptococcus pyogenes assessed as inhibition of bacterial growth at 10 to 20 uM incubated for 20 hrs; format: functional, organism-based; settings: dose 10-20 µM
[23] = biological target: T1, Cell division protein FtsZ (Streptococcus pneumoniae serotype 2 (strain D39 / NCTC 7466)); test: Inhibition of Streptococcus pneumoniae FtsZ assessed as inhibition of extent of polymerization at 30 uM pretreated for 20 mins followed by GTP addition and measured for 20 mins by light scattering based analysis; settings: time 40.0 min
[24] = biological target: T1, Cell division protein FtsZ (Streptococcus pneumoniae serotype 2 (strain D39 / NCTC 7466)); test: Inhibition of Streptococcus pneumoniae FtsZ assessed as time required to start of polymerization at 40 uM pretreated for 20 mins followed by GTP addition and measured for 20 mins by tryptophan fluorescence based spectrofluorometric analysis (reference value: 37 +/-18 sec); settings: time 40.0 min
[25] = system: Escherichia coli; test: Antibacterial activity against Escherichia coli K12 assessed as inhibition of bacterial growth at 10 to 20 uM incubated for 4 hrs; format: functional, organism-based; settings: dose 10-20 µM
[26] = biological target: T1, Cell division protein FtsZ (Streptococcus pneumoniae serotype 2 (strain D39 / NCTC 7466)); test: Inhibition of Streptococcus pneumoniae FtsZ polymerization at 20 uM preincubated for 20 mins followed by GTP addition for 3 mins by atomic force microscopy; settings: time 23.0 min
[27] = system: Bacillus subtilis; test: Antibacterial activity against Bacillus subtilis; format: functional
[28] = system: Mycobacterium tuberculosis; test: Antibacterial activity against Mycobacterium tuberculosis H37; format: functional
[29] = system: Staphylococcus aureus; test: Antibacterial activity against Staphylococcus aureus assessed as inhibition of bacterial growth incubated for 16 to 24 hrs by CLSI based microdilution assay; format: functional; settings: time 16-24 hrs
[30] = biological target: T1, Cell division protein FtsZ (Streptococcus pneumoniae serotype 2 (strain D39 / NCTC 7466)); test: Inhibition of Streptococcus pneumoniae FtsZ assessed as increase in GTPase activity by measuring increase in inorganic phosphate release at >20 uM pretreated for 20 mins followed by GTP addition and measured after 10 mins by malachite green assay based UV-Vis spectrophometry; settings: time 30.0 min
[31] = system: Bacillus subtilis; test: Antibacterial activity against Bacillus subtilis 168 assessed as inhibition of bacterial growth incubated for 6 hrs by agar dilution method; format: functional
[32] = system: Streptococcus pneumoniae; test: Antibacterial activity against Streptococcus pneumoniae TIGR4 assessed as inhibition of bacterial growth incubated for 24 hrs by agar dilution method; format: functional
[33] = system: Acinetobacter baumannii; test: Antibacterial activity against Acinetobacter baumannii ATCC 19606 assessed as inhibition of bacterial growth incubated for 18 hrs by microbroth dilution method; format: functional
[34] = system: Staphylococcus aureus; test: Antibacterial activity against Staphylococcus aureus; format: functional

CCOC(=O)c1c(CSc2ccc(Cl)cc2)nc2ccc(Br)cn12
inhibition at 10 µM [1]: 17% | Activity [2]: inactive

CCOC(=O)c1c(CSc2ccncc2)nc2ccc(Br)cn12
inhibition at 10 µM [1]: 31% | Activity [2]: inactive

CCOC(=O)c1c(CSc2ccc(OC)cc2)nc2ccc(Br)cn12
inhibition at 10 µM [1]: 67% | Activity [3]: inactive | Activity [4]: 13 nm | IC50 ([5]; TIGR4, 24 h): 17 µM | MIC ([5]; TIGR4, time 24 hrs): 20 mg/L (≈ 47.5 µM) | inhibition [6]: Active | Activity [7]: inactive | inhibition [8]: 59% | Activity [2]: inactive | inhibition [9]: Active | Activity [10]: 46% | inhibition [11]: Active | Activity [12]: inactive | Activity [13]: inactive | Activity [14]: 17% | INH [15]: 0.05 AU/sec | Activity [16]: inactive | inhibition [17]: 75% | IC50 at 24 h [18]: 41 µM | Activity [19]: inactive | inhibition [20]: 54% | Activity [21]: 28% | Activity [22]: Active | inhibition [23]: 34% | TIME [24]: 0.0644 h | Activity [25]: inactive | inhibition [26]: Active

CCOC(=O)c1c(CSc2ccc(Br)cc2)nc2ccc(Br)cn12
inhibition at 10 µM [1]: 0% | Activity [2]: inactive

CC(NC(=O)c1nc2ccccc2n1-c1ccccc1)c1ccccc1 (stereo unspecified)
MIC [27]: 1.56 mg/L (≈ 4.57 µM) | MIC [28]: 0.78 mg/L (≈ 2.28 µM)

NC(=O)c1c(F)ccc(OCc2nc3cc(C(F)(F)F)cnc3s2)c1F
MIC [29]: 2 mg/L (≈ 5.14 µM)

CCOC(=O)c1c(CSc2ccc3ccccc3c2)nc2ccc(Br)cn12
inhibition at 10 µM [1]: 54% | Activity [2]: inactive | inhibition [9]: Active | inhibition [30]: inactive

O=C(CCc1ccc(O)cc1)C1=C(O)C(Cc2ccc(O)cc2)CCC1 (stereo unspecified)
MIC [31]: ~3.8 mg/L (≈ 10.8 µM) | MIC [32]: ~0.7 mg/L (≈ 1.99 µM)

Cc1nc2ccccc2n1C(=O)/C=C/c1ccc(Br)cc1
MIC [33]: 32 mg/L (≈ 93.8 µM)

NC(=O)c1c(F)ccc(OCc2nc3cc(Cl)cnc3s2)c1F
MIC [27]: 1 mg/L (≈ 2.81 µM) | MIC [34]: 0.5 mg/L (≈ 1.41 µM)

CCOC(=O)c1c(CSc2ccccc2Br)nc2ccc(Br)cn12
inhibition at 10 µM [1]: 0% | Activity [2]: inactive

CCOC(=O)c1c(CSc2ccc([N+](=O)[O-])cc2)nc2ccc(Br)cn12
inhibition at 10 µM [1]: 0% | Activity [2]: inactive

CCOC(=O)c1c(CSc2ccccc2OC)nc2ccc(Br)cn12
inhibition at 10 µM [1]: 17% | Activity [2]: inactive

CCOC(=O)c1c(CSc2ccccc2)nc2ccc(Br)cn12
inhibition at 10 µM [1]: 25% | Activity [2]: inactive

CC1=CC(=O)c2ccccc2C1=O [MENADIONE]
inhibition at 10 µM [1]: 100%

CCOC(=O)c1c(CSc2nc3ccccc3[nH]2)nc2ccc(Br)cn12
inhibition at 10 µM [1]: 37% | Activity [2]: inactive
